Laboratory results taken from ChEMBL document CHEMBL1152129, “Quantitative structure-activity relationship and complex network approach to monoamine oxidase A and B inhibitors” (J Med Chem, 2008).
pIC50: −log10 of the molar value.

Assays:
[1] = target: T1, Amine oxidase [flavin-containing] A (Homo sapiens, UniProt P21397); experiment: Inhibition of human recombinant MAOA by fluorimetric method; conditions: for Activity: human
T1 sequence (P21397 whole entry): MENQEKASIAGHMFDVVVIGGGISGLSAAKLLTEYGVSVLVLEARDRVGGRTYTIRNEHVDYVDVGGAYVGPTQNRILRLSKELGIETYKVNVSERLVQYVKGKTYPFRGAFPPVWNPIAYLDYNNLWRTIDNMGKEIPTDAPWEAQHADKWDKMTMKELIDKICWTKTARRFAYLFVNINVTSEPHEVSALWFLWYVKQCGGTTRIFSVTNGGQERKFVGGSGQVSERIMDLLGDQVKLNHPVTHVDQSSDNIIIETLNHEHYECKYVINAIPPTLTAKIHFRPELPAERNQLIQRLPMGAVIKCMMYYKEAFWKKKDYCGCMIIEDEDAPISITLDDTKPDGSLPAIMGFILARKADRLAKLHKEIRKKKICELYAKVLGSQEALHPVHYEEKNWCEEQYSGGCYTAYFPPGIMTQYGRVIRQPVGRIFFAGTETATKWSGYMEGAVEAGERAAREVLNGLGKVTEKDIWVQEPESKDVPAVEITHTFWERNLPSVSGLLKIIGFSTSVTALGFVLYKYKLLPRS

[2] = target: T2, Amine oxidase [flavin-containing] B (Homo sapiens, UniProt P27338); experiment: Inhibition of human liver MAOB
T2 sequence (P27338 whole entry): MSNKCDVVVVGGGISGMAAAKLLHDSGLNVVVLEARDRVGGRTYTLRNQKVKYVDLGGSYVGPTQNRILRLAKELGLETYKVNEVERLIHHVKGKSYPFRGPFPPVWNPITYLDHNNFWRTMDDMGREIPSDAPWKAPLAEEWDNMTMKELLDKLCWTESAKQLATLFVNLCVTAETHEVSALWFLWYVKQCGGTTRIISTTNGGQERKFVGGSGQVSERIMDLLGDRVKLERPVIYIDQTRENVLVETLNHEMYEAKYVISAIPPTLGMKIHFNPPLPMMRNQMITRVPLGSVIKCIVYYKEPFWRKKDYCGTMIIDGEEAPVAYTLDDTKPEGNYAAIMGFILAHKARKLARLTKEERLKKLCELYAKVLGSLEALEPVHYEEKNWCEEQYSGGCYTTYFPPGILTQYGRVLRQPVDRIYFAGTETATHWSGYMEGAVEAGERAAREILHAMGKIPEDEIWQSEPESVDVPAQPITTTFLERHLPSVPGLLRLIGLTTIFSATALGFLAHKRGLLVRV

[3] = target: T1, Amine oxidase [flavin-containing] A; experiment: Inhibition of human liver MAOA
[4] = target: T2, Amine oxidase [flavin-containing] B; experiment: Inhibition of human recombinant MAOB at 100 uM by fluorimetric method

Structure (SMILES) | Activity [1] | Activity [3] | further results
CO[C@@]12[C@H](COC(N)=O)C3=C(C(=O)C(C)=C(N)C3=O)N1C[C@H]1[C@@H]2N1c1ccc(O)cc1 | Not Active | – | –
OC[C@@H](O)[C@@H](O)[C@H](O)[C@H](O)CO [MANNITOL] | Not Active | – | –
OC1CCCCC1N1CCC(c2ccccc2)CC1 (stereo not drawn) | – | Not Active | Activity [2]: Not Active
COC1=C(C)C(=O)C2=C(C1=O)[C@@H](CO)N1[C@H]3[C@H]4[C@@H](C[C@H]([C@H]1C#N)N4C)[C@@H]1OCCN1[C@@H]23 [CYANOCYCLINE A] | Not Active | – | –
O=C(O)c1ccc(NC2OC[C@@H](O)[C@H](O)[C@H]2O)cc1 (stereo partly drawn) [BENAXIBINE] | Not Active | – | –
CC1(C)O[C@@H]2C[C@H]3[C@@H]4C[C@H](F)C5=CC(=O)C=C[C@]5(C)[C@@]4(Cl)[C@@H](Cl)C[C@]3(C)[C@]2(C(=O)CO)O1 [FLUCLORONIDE] | – | – | Activity [4]: Not Active; Activity [2]: Not Active
CCOC(=O)/C=C1\SC(N2CCCCC2)C(=O)N1C (stereo not drawn) [ETOZOLIN] | Not Active | – | –
O=NN(CCCl)C(=O)NCCO [ELMUSTINE] | Not Active | – | –
O=c1[nH]nc(-c2ccncc2)o1 [NEOVADRINE] | – | Not Active | –
COc1cc2c(cc1O)N=C[C@@H]1CC[C@H](O)N1C2=O [NEOTHRAMYCIN A] | – | Not Active | –
CC(=O)OC1C=CC(=O)OC1C1OC1C (stereo not drawn) [ASPERLIN] | Not Active | – | –
Clc1sc(Cl)c(Cl)c1Cl [TETRACHLOROTHIOPHENE] | – | Not Active | Activity [2]: Not Active
C[C@H]1CC2=CC(=O)CC[C@]2(C)[C@H]2CC[C@@]3(C)[C@@H](CC[C@]3(C)O)[C@H]12 [CALUSTERONE] | Not Active | – | –
CC(=O)Nc1ccc(/C=N/NC(N)=S)cc1 [AMITHIOZONE] | Not Active | – | –
CC(=O)Nc1nnc(S(N)(=O)=O)s1 [ACETAZOLAMIDE] | – | Not Active | Activity [2]: Not Active
CCc1nc(N)nc(N)c1-c1ccc(Cl)c(Cl)c1 [ETOPRINE] | Not Active | – | –
COc1c(O)ccc2c(C)cc(=O)oc12 | – | – | Activity [4]: Not Active; pIC50 [1]: 4.10
[H]/N=C(/N)NS(=O)(=O)c1ccc(N)cc1 [SULFAGUANIDINE] | – | Not Active | –
Cc1cccc(C)c1NC(=O)C1CCCCN1C (stereo not drawn) [MEPIVACAINE] | – | – | Activity [4]: Not Active; Activity [2]: Not Active
O=c1[nH]c(=O)n([C@H]2C[C@H](O)[C@@H](CO)O2)cc1F [FLOXURIDINE] | – | – | Activity [4]: Not Active; Activity [2]: Not Active
Cc1ccc(S(=O)(=O)NC(=O)N[C@H]2[C@H]3CC[C@@](C)([C@H]2O)C3(C)C)cc1 [GLIBORNURIDE] | Not Active | – | –
O=C1c2ccccc2C(=O)c2c(NCCNCCO)ccc(NCCNCCO)c21 [AMETANTRONE] | – | Not Active | Activity [2]: Not Active

Structure (SMILES) | Activity [1] | Activity [3] | further results
COc1cccc2c1C(=O)c1c(O)c3c(c(O)c1C2=O)C[C@@](O)(C(=O)CO)C[C@@H]3O[C@H]1C[C@H](N)[C@H](O)[C@H](C)O1 [DOXORUBICIN] | Not Active | – | –
COc1cc(NC(C)CCCN)c2ncccc2c1 (stereo not drawn) [PRIMAQUINE] | Not Active | – | –
Cn1cc(I)ccc1=O | – | Not Active | –
Nc1ccc(S(=O)(=O)Nc2ncccn2)cc1 [SULFADIAZINE] | – | Not Active | –
CCC1(c2ccccc2)C(=O)NCNC1=O [PRIMIDONE] | Not Active | – | –
CCOC(N)=O | – | Not Active | Activity [2]: Not Active
CCC1(c2ccccc2)C(=O)NC(=O)NC1=O [PHENOBARBITAL] | Not Active | – | –
Cc1cc(Cl)ccc1OCC(=O)O [METAXON] | Not Active | – | –
CC(CCc1ccccc1)NCC(O)c1ccc(O)c(C(N)=O)c1 (stereo not drawn) [LABETALOL] | Not Active | – | –
CC1=C(/C=C/C(C)=C/C=C/C(C)=C/CO)C(C)(C)CCC1 [RETINOL] | Not Active | – | –
OC[C@H]1O[C@@H](n2cnc3c(S)ncnc32)[C@H](O)[C@@H]1O [THIOINOSINE] | Not Active | – | –
CC[C@H](C)[C@@H]1NC(=O)[C@H](Cc2ccc(O)cc2)NC(=O)[C@@H](N)CSSC[C@@H](C(=O)N2CCC[C@H]2C(=O)N[C@@H](CC(C)C)C(=O)NCC(N)=O)NC(=O)[C@H](CC(N)=O)NC(=O)[C@H](CCC(N)=O)NC1=O [OXYTOCIN] | – | Not Active | –
C=CC(=O)NCNC(=O)CCBr [BROMACRYLIDE] | Not Active | – | –
CC(c1cnc2nc(N)nc(N)c2n1)N(C)c1ccc(C(=O)N[C@@H](CCC(=O)O)C(=O)O)cc1 (stereo partly drawn) [ADENOPTERIN] | Not Active | – | –
COCCOC(=O)C1=C(C)NC(C)=C(C(=O)OC(C)C)C1c1cccc([N+](=O)[O-])c1 (stereo not drawn) [NIMODIPINE] | Not Active | – | –
COc1ccc(Cl)cc1C(=O)NCCc1ccc(S(=O)(=O)NC(=O)NC2CCCCC2)cc1 [GLYBURIDE] | Not Active | – | –
CCCCCCCCCCCCCCCC(=O)N(CCCCN(C)C)CCCCN(C)C [SOLAPALMITINE] | Not Active | – | –
C=CC1=C(C(=O)O)N2C(=O)[C@@H](NC(=O)/C(=N\OCC(=O)O)c3csc(N)n3)[C@H]2SC1 [CEFIXIME] | Not Active | – | –
CCOC(=O)[C@H](Cc1ccc(O)cc1)NC(=O)[C@H](Cc1ccc(N(CCCl)CCCl)cc1)NC(C)=O [ASDOPHAN] | Not Active | – | –
CCCCNc1ccc(C(=O)OCCN(C)C)cc1 [TETRACAINE] | – | Not Active | Activity [2]: Not Active
C[C@@H]1C[C@@H]([C@H](O)CC2CC(=O)NC(=O)C2)C(=O)[C@@H](C)C1 [CYCLOHEXIMIDE] | Not Active | – | –
CNCCc1ccc(OC(=O)C(C)C)c(OC(=O)C(C)C)c1 [IBOPAMINE] | Not Active | – | –

Structure (SMILES) | Activity [1] | Activity [3] | further results
CCCCC1=C2N=C(N)N[C@H]3CC[C@@H](C[C@@H]1C)[C@@H]23 [PTILOCAULINE] | – | Not Active | –
Cc1noc(NS(=O)(=O)c2ccc(N)cc2)c1C [SULFISOXAZOLE] | Not Active | – | –
Cc1nnc(SCC2=C(C(=O)O)N3C(=O)[C@@H](NC(=O)Cn4cnnn4)[C@H]3SC2)s1 [CEFAZOLIN] | Not Active | – | –
CC(C)Cc1ccc(C(C)C(=O)O)cc1 (stereo not drawn) [IBUPROFEN] | Not Active | – | –
NC(=O)NO [HYDROXYUREA] | Not Active | – | –
O[C@@H]([C@H](O)[C@H](O)CBr)[C@H](O)CBr [MITOBRONITOL] | Not Active | – | –
C=CCC(C(=O)NC(N)=O)C(C)C (stereo not drawn) [APRONAL] | – | Not Active | –
N#CC(O[C@@H]1O[C@H](CO[C@@H]2O[C@H](CO)[C@@H](O)[C@H](O)[C@H]2O)[C@@H](O)[C@H](O)[C@H]1O)c1ccccc1 (stereo partly drawn) [VITAMIN B17] | Not Active | – | –
O=C(O)CCCCSc1[nH]cnc2ncnc1-2 [BUTHIOPURINE] | – | Not Active | –
N[C@@H]1C[C@H]1c1ccccc1.N[C@H]1C[C@@H]1c1ccccc1 (racemic) [TRANYLCYPROMINE] | – | Not Active | Activity [2]: Not Active
CN1C(CSCC(F)(F)F)Nc2cc(Cl)c(S(N)(=O)=O)cc2S1(=O)=O (stereo not drawn) [POLYTHIAZIDE] | – | Not Active | –
Nc1nc(=O)c2nc(CNc3ccc(C(=O)NC(CCC(=O)NC(CCC(=O)NC(CCC(=O)O)C(=O)O)C(=O)O)C(=O)O)cc3)cnc2[nH]1 (stereo not drawn) [PTEROPTERIN] | – | Not Active | –
O=C(NP(=O)(N1CC1)N1CC1)c1ccc(F)cc1 [FLUORBENZOTEF] | Not Active | – | –
CC(/C=N/NC(=N)N)=N\NC(=N)N [MITOGUAZONE] | Not Active | – | –
CCC1(C)CC(=O)NC1=O (stereo not drawn) [ETHOSUXIMIDE] | – | – | Activity [4]: Not Active
CC(=O)OCC(=O)[C@@]12N=C(C)O[C@@H]1C[C@H]1[C@@H]3CCC4=CC(=O)C=C[C@]4(C)[C@H]3[C@@H](O)C[C@@]12C [DEFLAZACORT] | – | Not Active | Activity [2]: Not Active
CCOC(=O)OC(C)OC(=O)[C@@H]1N2C(=O)[C@@H](NC(=O)[C@H](N)c3ccccc3)[C@H]2SC1(C)C (stereo partly drawn) [BACAMPICILLIN] | – | Not Active | Activity [2]: Not Active
CN(C)[C@@H]1C(O)=C(C(N)=O)C(=O)[C@@]2(O)C(O)=C3C(=O)c4c(O)cccc4[C@@](C)(O)[C@H]3[C@H](O)[C@@H]12 [OXYTETRACYCLINE] | – | Not Active | –
C[C@H](N)C(=O)N[C@@H]1[C@H]2C(=C(O)C[C@@H](O)[C@@H]2O)C(=O)O[C@]1(C)C(Cl)Cl [BACTOBOLIN] | – | Not Active | Activity [2]: Not Active
CCOc1ccc(NC(C)=O)cc1.Cl [PHENACETIN CHLORIDE] | – | Not Active | –
